Experimental data from patent US20250367166A1, “NEXT GENERATION DIPROVOCIMS THAT ACTIVATE THE INNATE AND ADAPTIVE IMMUNE RESPONSE” (The Scripps Research Institute, priority 2022, published 2025).
pEC50: −log10 of the molar value. Read-outs that look alike come from different tables or passages of the source.

Tests used:
TLR1/TLR2 [1] = molecular target: TLR1/TLR2 (Homo sapiens, UniProt O60603+Q15399); assay: TNF-α release from PMA-differentiated human THP-1 cells (ELISA); conditions: for Emax: THP-1, 4 h, read-out: Efficacy (magnitude) of response versus diprovocim-1 (100%), THP-1; for EC50: read-out: EC50 (nM) (THP-1): EC50 TNF-α release from human THP-1 cells;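 as to all read-outs here: cells exposed to graded compound concentrations for 4 h, TNF-α quantified in supernatant, LPS as positive and DMSO as negative control, values are duplicate means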
Sequence of TLR1/TLR2 (Homo sapiens, UniProt O60603+Q15399) (Q15399 25-786): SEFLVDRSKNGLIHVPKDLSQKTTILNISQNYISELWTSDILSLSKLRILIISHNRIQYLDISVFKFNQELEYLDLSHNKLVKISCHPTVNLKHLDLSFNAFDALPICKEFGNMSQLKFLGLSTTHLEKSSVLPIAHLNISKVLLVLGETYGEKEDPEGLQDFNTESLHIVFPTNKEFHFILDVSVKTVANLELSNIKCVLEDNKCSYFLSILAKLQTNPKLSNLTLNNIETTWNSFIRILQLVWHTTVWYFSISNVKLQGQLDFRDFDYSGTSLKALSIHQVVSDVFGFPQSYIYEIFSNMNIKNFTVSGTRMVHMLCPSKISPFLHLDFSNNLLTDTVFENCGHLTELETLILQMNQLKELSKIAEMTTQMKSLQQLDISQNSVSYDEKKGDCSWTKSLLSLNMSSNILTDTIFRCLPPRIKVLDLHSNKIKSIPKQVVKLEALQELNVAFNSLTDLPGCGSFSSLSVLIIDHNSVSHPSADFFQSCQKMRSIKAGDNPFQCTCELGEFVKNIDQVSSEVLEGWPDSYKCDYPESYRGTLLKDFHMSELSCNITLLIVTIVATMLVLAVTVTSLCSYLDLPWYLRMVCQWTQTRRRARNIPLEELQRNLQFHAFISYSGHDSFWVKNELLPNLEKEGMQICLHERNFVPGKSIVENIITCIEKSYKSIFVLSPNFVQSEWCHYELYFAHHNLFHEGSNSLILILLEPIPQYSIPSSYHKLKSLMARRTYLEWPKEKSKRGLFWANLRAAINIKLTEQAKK
Sequence of TLR1/TLR2 (Homo sapiens, UniProt O60603+Q15399) (O60603 21-784): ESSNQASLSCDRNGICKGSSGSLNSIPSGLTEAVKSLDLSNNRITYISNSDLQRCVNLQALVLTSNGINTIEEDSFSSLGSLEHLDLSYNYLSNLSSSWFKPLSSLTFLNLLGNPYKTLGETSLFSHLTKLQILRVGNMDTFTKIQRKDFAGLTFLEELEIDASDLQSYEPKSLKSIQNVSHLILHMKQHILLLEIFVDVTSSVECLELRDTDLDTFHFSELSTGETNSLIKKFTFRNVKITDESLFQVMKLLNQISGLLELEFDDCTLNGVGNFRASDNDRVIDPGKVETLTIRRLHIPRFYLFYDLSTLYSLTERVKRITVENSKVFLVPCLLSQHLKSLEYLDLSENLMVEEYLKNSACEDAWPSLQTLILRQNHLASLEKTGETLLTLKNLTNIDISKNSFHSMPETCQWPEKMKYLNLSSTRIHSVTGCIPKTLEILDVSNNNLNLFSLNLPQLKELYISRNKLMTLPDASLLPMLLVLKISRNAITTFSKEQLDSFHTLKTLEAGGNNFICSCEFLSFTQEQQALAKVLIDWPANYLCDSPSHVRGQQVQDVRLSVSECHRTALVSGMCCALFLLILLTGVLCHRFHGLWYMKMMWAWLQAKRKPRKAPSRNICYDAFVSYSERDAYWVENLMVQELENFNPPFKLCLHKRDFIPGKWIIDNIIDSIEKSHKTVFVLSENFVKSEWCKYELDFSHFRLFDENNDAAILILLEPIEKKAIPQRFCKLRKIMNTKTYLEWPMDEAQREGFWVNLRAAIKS

TLR1/TLR2 [2] = molecular target: TLR1/TLR2 (Mus musculus, UniProt Q9EPQ1+Q9QUN7); assay: TNF-α release from thioglycolate-elicited mouse peritoneal macrophages (ELISA); conditions: for Emax: 4 h, read-out: Efficacy (magnitude) of response versus diprovocim-1 (100%), mouse macrophages; for EC50: read-out: EC50 (nM) (mouse): EC50 TNF-α release from mouse macrophages, Table 1
Sequence of TLR1/TLR2 (Mus musculus, UniProt Q9EPQ1+Q9QUN7) (Q9EPQ1 26-795): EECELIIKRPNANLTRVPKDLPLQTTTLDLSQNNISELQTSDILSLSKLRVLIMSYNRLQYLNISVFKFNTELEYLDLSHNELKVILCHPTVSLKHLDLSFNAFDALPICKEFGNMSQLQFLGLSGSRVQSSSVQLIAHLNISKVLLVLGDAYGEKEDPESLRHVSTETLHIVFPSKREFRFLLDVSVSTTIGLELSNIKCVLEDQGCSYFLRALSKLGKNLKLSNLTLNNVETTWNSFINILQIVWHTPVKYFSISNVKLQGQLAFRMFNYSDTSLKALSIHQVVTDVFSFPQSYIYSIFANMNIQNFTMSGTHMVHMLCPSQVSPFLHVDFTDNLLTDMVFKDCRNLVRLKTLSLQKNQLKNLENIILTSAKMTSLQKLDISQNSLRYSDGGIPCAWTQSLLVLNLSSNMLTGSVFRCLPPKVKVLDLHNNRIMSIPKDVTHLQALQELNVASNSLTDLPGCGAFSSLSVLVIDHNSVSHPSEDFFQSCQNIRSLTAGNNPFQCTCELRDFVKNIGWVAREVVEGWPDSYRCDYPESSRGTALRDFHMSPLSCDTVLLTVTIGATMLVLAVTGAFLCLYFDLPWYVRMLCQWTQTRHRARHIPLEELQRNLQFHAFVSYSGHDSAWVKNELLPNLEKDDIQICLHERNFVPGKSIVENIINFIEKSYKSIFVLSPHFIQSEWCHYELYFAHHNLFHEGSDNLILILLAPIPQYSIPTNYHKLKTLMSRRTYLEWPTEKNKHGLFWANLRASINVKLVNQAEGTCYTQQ
Sequence of TLR1/TLR2 (Mus musculus, UniProt Q9EPQ1+Q9QUN7) (Q9QUN7 25-784): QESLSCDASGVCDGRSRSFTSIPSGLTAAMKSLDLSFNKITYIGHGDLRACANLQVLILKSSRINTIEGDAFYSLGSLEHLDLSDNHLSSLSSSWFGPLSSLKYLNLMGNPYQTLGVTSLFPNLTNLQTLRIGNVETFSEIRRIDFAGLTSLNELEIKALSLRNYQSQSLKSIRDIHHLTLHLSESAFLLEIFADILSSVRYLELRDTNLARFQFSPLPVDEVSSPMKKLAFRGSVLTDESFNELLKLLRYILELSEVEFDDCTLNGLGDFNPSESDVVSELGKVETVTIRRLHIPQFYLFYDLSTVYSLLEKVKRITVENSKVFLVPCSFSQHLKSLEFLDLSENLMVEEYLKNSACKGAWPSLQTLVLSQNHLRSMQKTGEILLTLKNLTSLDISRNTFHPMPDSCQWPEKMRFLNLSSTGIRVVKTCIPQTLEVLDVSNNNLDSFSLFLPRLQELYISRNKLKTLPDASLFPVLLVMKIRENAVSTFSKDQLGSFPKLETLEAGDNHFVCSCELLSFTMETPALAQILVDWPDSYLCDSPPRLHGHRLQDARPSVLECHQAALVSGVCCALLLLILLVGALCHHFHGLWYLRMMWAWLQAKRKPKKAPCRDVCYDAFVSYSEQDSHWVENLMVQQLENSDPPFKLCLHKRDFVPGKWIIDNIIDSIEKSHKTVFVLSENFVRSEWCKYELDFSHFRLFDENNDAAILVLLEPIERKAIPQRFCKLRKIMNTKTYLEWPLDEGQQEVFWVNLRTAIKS

| Emax (TLR1/TLR2 [1]) | EC50 (TLR1/TLR2 [1]; Table 1) | Emax (TLR1/TLR2 [2]) | EC50 (TLR1/TLR2 [2]) | EC50 (TLR1/TLR2 [1]; Table 2) | pEC50 (TLR1/TLR2 [2]) | SMILES |
| --- | --- | --- | --- | --- | --- | --- |
| 90% | 0.33 nM | 90% | 170 nM |  |  | CC(C)(C)OC(=O)NCC(=O)NCCCCCCCCCCCCNC(=O)[C@@H]1CN(C(=O)c2ccc(C(=O)N3C[C@@H](C(=O)N[C@H]4C[C@@H]4c4ccccc4)[C@H](C(=O)N[C@H]4C[C@@H]4c4ccccc4)C3)cc2)C[C@H]1C(=O)N[C@H]1C[C@@H]1c1ccccc1 [Compound 18, tert-Butyl (2-((12-((3S,4S)-1-(4-((3S,4S)-3,4-bis-(((1S,2R)-2-phenylcyclopropyl)carbamoyl)pyrrolidine-1-carbonyl)-benzoyl)-4-(((1S,2R)-2-phenyl-cyclopropyl)-carbamoyl)pyrrolidine-3-carboxamido)-dodecyl)amino)-2-oxoethyl)carbamate] |
| 120% | 0.04 nM | 180% | 1.3 nM |  |  | C#CCCCCCCCCCCCCNC(=O)[C@@H]1CN(C(=O)c2ccc(C(=O)N3C[C@@H](C(=O)N[C@H]4C[C@@H]4c4ccccc4)[C@H](C(=O)N[C@H]4C[C@@H]4c4ccccc4)C3)cc2)C[C@H]1C(=O)N[C@H]1C[C@@H]1c1ccccc1 [Compound 19, (3S,4S)-1-(4-((3S,4S)-3,4-Bis(((1S,2R)-2-phenylcyclo-propyl)carbamoyl)pyrrolidine-1-carbonyl)-benzoyl)-N^3-((1S,2R)-2-phenylcyclopropyl)-N^4-(tetradec-13-yn-1-yl)pyrrolidine-3,4-dicarboxamide] |
| 30% | 0.07 nM | 50% | 0.6 nM |  |  | [N-]=[N+]=NCCCCCCCCCCCCNC(=O)[C@@H]1CN(C(=O)c2ccc(C(=O)N3C[C@@H](C(=O)N[C@H]4C[C@@H]4c4ccccc4)[C@H](C(=O)N[C@H]4C[C@@H]4c4ccccc4)C3)cc2)C[C@H]1C(=O)N[C@H]1C[C@@H]1c1ccccc1 [Compound 20, (3S,4S)—N^3-(12-Azidododecyl)-1-(4-((3S,4S)-3,4-bis-(((1S,2R)-2-phenylcyclopropyl)carbamoyl)-pyrrolidine-1-carbonyl)benzoyl)-N^4-((1S,2R)-2-phenylcyclopropyl)-pyrrolidine-3,4-dicarboxamide] |
|  | 0.5 nM |  | 5 nM |  |  | O=C(NCCCCCCCCCCCCS)[C@@H]1CN(C(=O)c2ccc(C(=O)N3C[C@@H](C(=O)N[C@H]4C[C@@H]4c4ccccc4)[C@H](C(=O)N[C@H]4C[C@@H]4c4ccccc4)C3)cc2)C[C@H]1C(=O)N[C@H]1C[C@@H]1c1ccccc1 [Compound 21, (3S,4S)-1-(4-((3S,4S)-3,4-Bis(((1S,2R)-2-phenyl-cyclopropyl)carbamoyl)pyrrolidine-1-carbonyl)-benzoyl)-N^3-(12-mercaptododecyl)-N^4-((1S,2R)-2-phenyl-cyclo-propyl)pyrrolidine-3,4-dicarboxamide] |
|  | 7 nM |  | 50 nM |  |  | O=C(NCc1ccccc1)[C@@H]1CN(C(=O)c2ccc(C(=O)N3C[C@@H](C(=O)N[C@H]4C[C@@H]4c4ccccc4)[C@H](C(=O)N[C@H]4C[C@@H]4c4ccccc4)C3)cc2)C[C@H]1C(=O)N[C@H]1C[C@@H]1c1ccccc1 [Compound 22, (3S,4S)—N^3-Benzyl-1-(4-((3S,4S)-3,4-bis(((1S,2R)-2-phenylcyclopropyl)carbamoyl)pyrrolidine-1-carbonyl)-benzoyl)-N^4-((1S,2R)-2-phenylcyclopropyl)pyrrolidine-3,4-dicarboxamide] |
|  | 1.5 nM |  | 30 nM |  |  | O=C(NCCc1ccccc1)[C@@H]1CN(C(=O)c2ccc(C(=O)N3C[C@@H](C(=O)N[C@H]4C[C@@H]4c4ccccc4)[C@H](C(=O)N[C@H]4C[C@@H]4c4ccccc4)C3)cc2)C[C@H]1C(=O)N[C@H]1C[C@@H]1c1ccccc1 [Compound 23, (3S,4S)-1-(4-((3S,4S)-3,4-Bis(((1S,2R)-2-phenyl-cyclopropyl)carbamoyl)pyrrolidine-1-carbonyl)-benzoyl)-N^3-phenethyl-N^4-((1S,2R)-2-phenylcyclo-propyl)pyrrolidine-3,4-dicarboxamide] |
|  | 2 nM |  | 30 nM |  |  | O=C(NCc1ccc(F)cc1)[C@@H]1CN(C(=O)c2ccc(C(=O)N3C[C@@H](C(=O)N[C@H]4C[C@@H]4c4ccccc4)[C@H](C(=O)N[C@H]4C[C@@H]4c4ccccc4)C3)cc2)C[C@H]1C(=O)N[C@H]1C[C@@H]1c1ccccc1 [Compound 24, (3S,4S)-1-(4-((3S,4S)-3,4-Bis(((1S,2R)-2-phenylcyclo-propyl)carbamoyl)pyrrolidine-1-carbonyl)-benzoyl)-N^3-(4-fluorobenzyl)-N^4-((1S,2R)-2-phenylcyclopropyl)-pyrrolidine-3,4-dicarboxamide] |
|  | 0.5 nM |  | 1 nM |  |  | O=C(NCCc1ccc(F)cc1)[C@@H]1CN(C(=O)c2ccc(C(=O)N3C[C@@H](C(=O)N[C@H]4C[C@@H]4c4ccccc4)[C@H](C(=O)N[C@H]4C[C@@H]4c4ccccc4)C3)cc2)C[C@H]1C(=O)N[C@H]1C[C@@H]1c1ccccc1 [Compound 25, (3S,4S)-1-(4-((3S,4S)-3,4-Bis(((1S,2R)-2-phenylcyclo-propyl)carbamoyl)pyrrolidine-1-carbonyl)-benzoyl)-N^3-(4-fluorophenethyl)-N^4-((1S,2R)-2-phenylcyclopropyl)-pyrrolidine-3,4-dicarboxamide] |
| 90% | 0.15 nM | 380% | 2.6 nM |  |  | O=C(NCCCCCCCCc1ccc(O)cc1)[C@@H]1CN(C(=O)c2ccc(C(=O)N3C[C@@H](C(=O)N[C@H]4C[C@@H]4c4ccccc4)[C@H](C(=O)N[C@H]4C[C@@H]4c4ccccc4)C3)cc2)C[C@H]1C(=O)N[C@H]1C[C@@H]1c1ccccc1 [Compound 26, (3S,4S)-1-(4-((3S,4S)-3,4-Bis(((1S,2R)-2-phenylcyclo-propyl)carbamoyl)pyrrolidine-1-carbonyl)-benzoyl)-N^3-(8-(4-hydroxyphenyl)octyl)-N^4-((1S,2R)-2-phenylcyclo-propyl)pyrrolidine-3,4-dicarboxamide] |
| 100% | 0.3 nM | 250% | 6 nM |  |  | Nc1ccc(CCCCCCCCNC(=O)[C@@H]2CN(C(=O)c3ccc(C(=O)N4C[C@@H](C(=O)N[C@H]5C[C@@H]5c5ccccc5)[C@H](C(=O)N[C@H]5C[C@@H]5c5ccccc5)C4)cc3)C[C@H]2C(=O)N[C@H]2C[C@@H]2c2ccccc2)cc1 [Compound 27, (3S,4S)—N-(8-(4-Aminophenyl)octyl)-1-(4-((3S,4S)-3,4-bis(((1S,2R)-2-phenylcyclopropyl)carbamoyl)-pyrrolidine-1-carbonyl)benzoyl)-N^4-((1S,2R)-2-phenyl-cyclopropyl)-pyrrolidine-3,4-dicarboxamide] |
|  |  |  |  | 2000 nM | < 5.30 | O=C(NCCOCCOCCOCCO)[C@@H]1CN(C(=O)c2ccc(C(=O)N3C[C@@H](C(=O)N[C@H]4C[C@@H]4c4ccccc4)[C@H](C(=O)N[C@H]4C[C@@H]4c4ccccc4)C3)cc2)C[C@H]1C(=O)N[C@H]1C[C@@H]1c1ccccc1 [Compound 30, (3S,4S)-1-(4-((3S,4S)-3,4-Bis(((1S,2R)-2-phenyl-cyclopropyl)carbamoyl)pyrrolidine-1-carbonyl)-benzoyl)-N^3-(2-(2-(2-(2-hydroxyethoxy)ethoxy)ethoxy)-ethyl)-N^4-((1S,2R)-2-phenylcyclopropyl)-pyrrolidine-3,4-dicarboxamide] |
